Values quoted from earlier work in US20260048172A1, “WOUND DRESSINGS” (ConvaTec Limited, priority 2023, published 2026).

Substance: citric acid [citric/citrate]
- pka (third) (Ka = 0.0000004): pka = 6.4
- pka (second) (Ka = 0.0000200): pka = 4.7
- pka (first) (Ka = 0.0007943): pka = 3.1
